Data set [1] is filed under the species Mus musculus. The data set can be described thus: Effective dose required for maximal electroshock (MES)-induced seizures in mice in experiment 2. It counts as functional.
The species entered for data set [2] is Mus musculus. As to the kind of experiment: Effective dose required for maximal electroshock (MES)-induced seizures in mice in experiment 1. The class given is functional. (Protection in the maximal electroshock model is a classic sign of anticonvulsant action.)
The species entered for data set [3] is Mus musculus. As to the kind of experiment: Effective dose required for maximal electroshock (MES)-induced seizures in mice. The class given is functional.
Data set [4] can be described thus: Neurologic toxicity determined using horizontal screen test in mice in experiment 2. The class given is organism-based. The following applies: mouse, in vivo.
Data set [5] is described as follows: Neurologic toxicity determined using horizontal screen test in mice in experiment 1. It counts as organism-based. The settings on record: mouse, in vivo.
Data set [6] in a line: Protective index (TD50/ED50). It counts as functional.
A short description of data set [7]: (§1) Neurologic toxicity determined using horizontal screen test in mice. The settings on record: mouse, in vivo. The class given is organism-based.
Data set [8] can be described thus: Neurologic toxicity determined using rotarod test in mice. It counts as organism-based. The settings on record: mouse, in vivo. For orientation: Falling from the rotarod earlier than controls is read as motor impairment.
For data set [9], the species on record is Mus musculus. The data set is described as §1. It counts as organism-based. The settings on record: in vivo.

The term ED50 denotes the midpoint of the dose-response relation. With `CC(=O)NC(C(=O)NCc1ccccc1)c1ncon1` (centres undefined), the ED50 is under 300 mg/kg in the data set filed under Mus musculus [1] and over 100 mg/kg in the data set filed under Mus musculus [2].
Consider `CC(=O)NC(C(=O)NCc1cc[n+]([O-])cc1)c1ccco1` (centres undefined), for which the ED50 in the data set listed under Mus musculus [3] (Mus musculus, read-out: ED50) is over 100 mg/kg.
In the case of `CC(=O)NC(C(=O)NCc1ccc[n+]([O-])c1)c1ccco1` (centres undefined), the ED50 in the data set listed under Mus musculus [3] (Mus musculus, read-out: ED50) was about 30 mg/kg.
For orientation: TD50 means the dose at which the toxic effect under study appears in half of the subjects. Lower therefore signals greater toxicity. For `CC(=O)NC(C(=O)NCc1ccccc1)c1ccc[nH]1` (centres undefined), the TD50 was under 100 mg/kg in data set [4] and over 30 mg/kg in data set [5].
In data set [6], `CC(=O)NC(C(=O)NCc1ccccc1)c1ccco1` (centres undefined) registered a PI of 3.9. For the same compound, the TD50 in data set [7] is about 40 mg/kg.
`CC(=O)NC(C(=O)NCc1ccccc1)c1ccccc1` (centres undefined) came in with a TD50 in [7] of over 40 mg/kg.
For the compound `CC(=O)NC(C(=O)NCc1ccccc1)n1cccc1` (centres undefined), in the data set filed under Mus musculus [3] (Mus musculus, read-out: ED50), the ED50 was determined as 80.2 mg/kg.
For the compound `CC(=O)NC(C(=O)NCc1cccnc1)c1ccco1` (centres undefined), the ED50 in the data set listed under Mus musculus [3] (Mus musculus, read-out: ED50) was about 30 mg/kg.
`CC(=O)N[C@H](C(=O)NCc1ccc(C)cc1)c1ccco1`: the ED50 in the data set listed under Mus musculus [3] (Mus musculus, read-out: ED50) is 43.6 mg/kg.
With `C/C(S)=N\C(C(=O)NCc1ccccc1)c1ccco1` (centres undefined), in the data set listed under Mus musculus [3] (Mus musculus, read-out: ED50), the ED50 came out at 18.4 mg/kg.
Consider `CC(=O)NC(C(=O)NCc1ccccc1)c1cccs1` (centres undefined), for which the TD50 in [4] was under 100 mg/kg; in [5], over 30 mg/kg.
As to `CC(=O)N[C@@H](C(=O)NCc1ccc(F)cc1)c1ccco1`, in [6], the PI was 4.1. The median effective dose (ED50) in the data set filed under Mus musculus [3] (Mus musculus, read-out: ED50) turned out to be 3.5 mg/kg. In data set [7], this compound came in with a TD50 of 14.4 mg/kg.
On to `CC(=O)NC(C(=O)NCc1ccccc1)c1nccs1` (centres undefined), for which the PI in [6] amounted to 5.7. In addition, the ED50 in the data set filed under Mus musculus [3] (Mus musculus, read-out: ED50) amounted to 12.1 mg/kg. This compound registered a TD50 in data set [8] of 69.1 mg/kg.
For `CC(=O)NC(C(=O)NCc1ccccc1)n1cncn1` (centres undefined), the ED50 in the data set filed under Mus musculus [1] is under 100 mg/kg; in the data set filed under Mus musculus [2], over 30 mg/kg.
For the compound `CC(=O)NC(C(=O)NCc1ccncc1)c1ccco1` (centres undefined), the ED50 in the data set filed under Mus musculus [3] (Mus musculus, read-out: ED50) was over 100 mg/kg.
As for `CC(=O)NC(C(=O)NCc1ccccc1)c1nc[nH]n1` (centres undefined), the ED50 in the data set listed under Mus musculus [3] (Mus musculus, read-out: ED50) is over 100 mg/kg.
Still for that read-out and setting: for `C/C(S)=N/C(/C(S)=N/Cc1ccccc1)c1ccco1` (centres undefined) the value was over 100 mg/kg.
On the same count and under the same terms, under `CC(=O)NC(C(=O)NCc1ccccc1)C1CCCO1` (centres undefined) stands 89.8 mg/kg.
As for `CC(=O)N[C@@H](C(=O)NCc1ccccc1)c1ccco1`, the PI in data set [6] was 7.2. Also, the ED50 in the data set listed under Mus musculus [3] (Mus musculus, read-out: ED50) was determined as 3.3 mg/kg.
In the case of `CC(=O)N[C@H](C(=O)NCc1ccccc1)c1ccco1` (stereo in doubt; (S)-4), in the data set listed under Mus musculus [3], the ED50 is over 25 mg/kg. The same compound came in with a TD50 in the data set filed under Mus musculus [9] of over 200 mg/kg.
Regarding `CC(=O)NC(C(=O)NCc1ccccc1)c1c[nH]cn1` (centres undefined), the ED50 in the data set listed under Mus musculus [3] (Mus musculus, read-out: ED50) is over 100 mg/kg.
On the same count and under the same terms, for `CC(=O)NC(C(=O)NCc1ccccc1)n1ccnc1` (centres undefined) the value was over 100 mg/kg.
`CC(=O)NC(C(=O)NCc1ccccc1)c1ccsc1` (centres undefined): the TD50 in [7] is over 100 mg/kg.
In turn, `CC(=O)N[C@H](C(=O)NCc1ccccc1)c1ccco1` (stereo in doubt; 4) [listing 1 of 2 here] displayed an ED50 in the data set listed under Mus musculus [3] of 10.3 mg/kg. For the same compound, the TD50 in the data set filed under Mus musculus [9] is ~ 40 mg kg-1.
As to `CC(=O)N[C@H](C(=O)NCc1ccc(C(F)(F)F)cc1)c1ccco1`, in the data set filed under Mus musculus [3] (Mus musculus, read-out: ED50), the ED50 was determined as 22.8 mg/kg.
The same measure, in the same setting: for `CC(=O)NC(C(=O)NCc1ccccc1)n1cnnn1` (centres undefined) the value was over 300 mg/kg.
In the case of `CC(=O)NC(C(=O)NCc1ccccc1)c1ncco1` (centres undefined), in data set [6], the PI came out at 3.7. Besides, in the data set filed under Mus musculus [3] (Mus musculus, read-out: ED50), the ED50 is 10.4 mg/kg. Further, the TD50 in data set [8] is 38.6 mg/kg.
Compound `CC(=O)NC(C(=O)NCc1ccc(F)cc1)c1ccco1` (centres undefined) showed a PI in data set [6] of 11.3.
Regarding `CC(=O)NC(C)(C(=O)NCc1ccccc1)c1ccco1` (centres undefined), in the data set listed under Mus musculus [3] (Mus musculus, read-out: ED50), the ED50 is over 300 mg/kg.
Same read-out and setting: under `CC(=O)NC(C(=O)NCc1ccccc1)c1ncc[nH]1` (centres undefined) stands over 100 mg/kg; under `CC(=O)NC(C(=O)NCc1ccccc1)n1cccn1` (centres undefined), 16.5 mg/kg; under `CC(=O)NC(C(=O)NNc1ccccn1)c1ccco1` (centres undefined), over 100 mg/kg.
With `CC(=O)N[C@H](C(=O)NCc1ccccc1)c1ccco1` (stereo in doubt; 4) [listing 2 of 2 here], the PI in [6] amounted to 3.9.
As for `CC(=O)NC(C(=O)NCc1ccccc1)c1nnn[nH]1` (centres undefined), the ED50 in the data set listed under Mus musculus [1] was under 100 mg/kg; in the data set filed under Mus musculus [2], over 30 mg/kg.

Values taken from ChEMBL document CHEMBL1126877, “Synthesis and anticonvulsant activities of alpha-heterocyclic alpha-acetamido-N-benzylacetamide derivatives” (J Med Chem, 1993).
